Reference: paper PMC4575030 (PLoS ONE, 2015)
“And” between values parts separate entries of the source, which are not always exact repeats. Equal entries are not always repeated. Structures can show the parent of a compound that is named as a salt. Where two headings read alike, the source gives them in different places.

Experiments:
[1] = system: rat spinal nerve ligation model; test: Tactile allodynia following spinal nerve ligation (SNL); assay type: in vivo; conditions: gabapentin positive control, 75 min after dosing; statistically significant
Text: A decrease in tactile response threshold, using calibrated von Frey filaments (Stoelting Co., Wood Dale, IL), was used as a measure of tactile allodynia following spinal nerve ligation (SNL). Prior to surgery, each animal underwent baseline testing to determine suitability for the assay. Briefly, animals were placed on a raised platform with a grid meshed floor. The distance between the mesh was ¼”. Once acclimated, each animal received a series of trials according to the up-down method described by Dixon. Animals showing a response to less than 4 g were deemed already sensitive to the stimulus and were removed. A maximal fiber of 15 g was employed as a cut-off threshold. Surgery was then performed with a procedure slightly modified by that reported by Kim and Chung. Briefly, the left L5 spinal nerve was carefully isolated from the surrounding tissue. Using 5–0 silk suture, a tight ligature was placed around L5 nerve. Muscle and skin were then closed using 4–0 absorbable suture and wound clips. Animals were allowed to recover and were carefully monitored for seven days to ensure proper healing and ensure there was no mutilation of the affected limb. On day 21 post-surgery, animals were again tested to ensure the development of tactile allodynia. […] Animals were then randomized into groups and dosed with the test compound, gabapentin, or vehicle and assessed as stated above. […]

hNav1.7 = target: T1, hNav1.7 (Homo sapiens, UniProt Q15858); test: Manual whole cell patch clamp electrophysiology on HEK 293 cells stably expressing hNav1.7; assay type: cell-based
T1 construct: expressed in transfected cells; host or cells: HEK 293
Experimental: Except as indicated, recordings to determine potency of aminotriazines on Nav1.7 were made with manual electrophysiology. HEK 293 cells stably expressing hNav1.7 were voltage-clamped using the whole cell patch clamp configuration. Cells were plated onto 35 mm culture dishes 0–24 hours before recording, and tissue culture medium was exchanged for external solution containing (in mM) 140 NaCl, 5 KCl, 2 CaCl2, 1 MgCl2, 10 HEPES, 11 glucose, pH 7.4 with NaOH. Patch pipettes were pulled from borosilicate glass capillaries (1.2 mm outer diameter, World Precision Instruments, Sarasota, FL) with a P-97 pipette puller (Sutter Instruments, Novato, CA) and backfilled with internal solution containing (in mM) 62.5 CsCl, 75 CsF, 2.5 MgCl2, 5 EGTA, 10 HEPES, pH 7.25 with CsOH. Pipette resistances were between 1.5 and 2.0 MΩ. After formation of the whole-cell configuration, cells were lifted off the dish bottom with the patch pipette and positioned directly in front of a microarray of glass tubes (each tube internal diameter ~ 1 mm) with each tube containing continuously flowing control or test solution. A full current-voltage relation was recorded from each cell, and cells with poor space clamp as indicated by discontinuous I-V relation or by prolonged or nonexponential current kinetics were discarded. Solution switching was accomplished by moving the microarray with computer control via an RSC-160 rapid solution exchanger (Bio-Logic, Claix, France). Currents were recorded with an Axopatch 200B patch-clamp amplifier driven by pCLAMP software, filtered (4-pole Bessel) at 5 kHz during acquisition, and digitized at 20 kHz using pClamp9.2. Whole cell capacitance and series resistance were compensated at 0%- 80%, and reported voltages were uncorrected for liquid junction potentials. Recordings were made at room temperature. Concentration-response curves were taken by measuring inward Nav1.7 current every five to six seconds with a 10 ms to 20 ms depolarization to near the peak of the current-voltage relation, before and after steady-state inhibition by a given concentration of aminotriazine. For concentration response curves on partially inactivated channels, holding voltage was set to produce 20% fractional inactivation. […] Occasionally two compound concentrations were tested in parallel without resetting the voltage, if inhibition was rapid and the current level steady. […] Concentration response curves on non-inactivated channels generally were taken with multiple concentrations added in series without washoff of the previous concentration.

rat Nav1.7 = rat Nav1.7 (Rattus norvegicus, UniProt O08562); test: PatchXpress automated electrophysiology on rat Nav1.7; assay type: cell-based; conditions: 20%-inactivated rat Nav1.7
[2] = In vitro plasma protein binding; assay type: in vitro ADME
[3] = Terminal plasma and brain concentrations after behavioral testing; assay type: in vivo, rat; conditions: for concentration at 160 min / Terminal plasma concentration: mean; for concentration at 160 min: n = 4; for Terminal plasma concentration: n = 8
[4] = system: rat formalin model of pain; test: Formalin test (formalin-induced flinching); assay type: in vivo; conditions: for Decrease in formalin flinching: phase 2 (10 to 40 min), percent of vehicle
Experimental: Formalin-induced flinching was measured using the Automated Nociception Analyzer (ANA) (University Anesthesia Research & Development Group, La Jolla, CA). Rats were habituated to the ANA testing chambers for at least 30 minutes prior to the formalin injection. At test time, each rat was removed from the testing chamber and gently wrapped in a towel. 50 μL of 2.5% formalin solution was injected into the dorsal surface of the left hind paw with a 30 gauge needle. A small metal band was then affixed to the plantar side of the injected paw with one drop of super glue. The animal was then unwrapped from the towel, placed back in the testing chamber, and flinching behavior was scored for 40 minutes by the ANA software. While minimized, non-painful paw movement from the natural activity of an alert animal could be erroneously binned by the automated recording system as a nociceptive behavior. These behaviors are not subtracted from the flinching total. […] Total flinching behavior was used as the endpoint of the assay.

naïve rats = test: Open field activity (basic movement); assay type: in vivo, rat; conditions: formalin-naïve rats
Experimental: Basic movement was measured using the Photobeam Activity System Open Field (San Diego Instruments, San Diego, CA) equipped with 48 infrared photocell emitters and detectors. Photobeams used to measure vertical movement were positioned 14 cm above the test chamber floor. Each testing chamber was made of Plexiglas (41 x 41 x 36 cm) and was devoid of any bedding. At the beginning of the test session, each animal was placed in a separate testing chamber and the room lights were turned off. Basic movement was measured for 30 minutes.

rat CFA model of pain = test: CFA-induced thermal hyperalgesia; assay type: in vivo; conditions: morphine s.c., 30 min after dosing, positive control
Experimental: CFA-induced thermal hyperalgesia was measured using the Thermal Plantar Analgesia Instrument (Ugo Basile, Italy). Intensity of the radiant heat stimulus was adjusted to achieve a withdrawal latency of approximately 13 s in naïve animals. On test day one, animals were placed on the apparatus in their individual testing chambers with an absorbent towel at the bottom and allowed to habituate for at least 30 minutes. The towel was then removed and animals were allowed to acclimate for at least 15 minutes more. After habituation, animals were placed back in their home cages until the following day. On test day two, animals were placed back in the testing chambers until calm (typically 20 minutes). The thermal device was positioned on the center of the left hind paw and the test was started. The time for the animal to withdraw its paw from the thermal stimulus was recorded. A cut-off of 30 seconds was used to prevent tissue damage. Few trials went past 20 seconds and none past 25 seconds. This procedure was repeated for three trials per animal, each separated by at least 5 min, and trials were averaged to determine baseline withdrawal latencies. After determining baseline measures, each animal received an injection of 50 μl CFA (1:1 emulsion with PBS, Sigma, St. Louis, MO) into the plantar side of the left hind paw with a 26 gauge needle. Animals were then placed back in their home cages until the following day. Approximately 24 h after the CFA injection, withdrawal latencies to heat were determined as described above. Animals were then randomized based on their Post-CFA baseline score and treated with the test compound or vehicle. […] The experimenter was blinded to drug treatment during this assay. Percent return to baseline latency was used as the endpoint of the assay.

[5] = 30 mg/kg p.o., listed as compound A
[6] = 60 mg/kg p.o., listed as compound A

T1 sequence (Q15858 whole entry): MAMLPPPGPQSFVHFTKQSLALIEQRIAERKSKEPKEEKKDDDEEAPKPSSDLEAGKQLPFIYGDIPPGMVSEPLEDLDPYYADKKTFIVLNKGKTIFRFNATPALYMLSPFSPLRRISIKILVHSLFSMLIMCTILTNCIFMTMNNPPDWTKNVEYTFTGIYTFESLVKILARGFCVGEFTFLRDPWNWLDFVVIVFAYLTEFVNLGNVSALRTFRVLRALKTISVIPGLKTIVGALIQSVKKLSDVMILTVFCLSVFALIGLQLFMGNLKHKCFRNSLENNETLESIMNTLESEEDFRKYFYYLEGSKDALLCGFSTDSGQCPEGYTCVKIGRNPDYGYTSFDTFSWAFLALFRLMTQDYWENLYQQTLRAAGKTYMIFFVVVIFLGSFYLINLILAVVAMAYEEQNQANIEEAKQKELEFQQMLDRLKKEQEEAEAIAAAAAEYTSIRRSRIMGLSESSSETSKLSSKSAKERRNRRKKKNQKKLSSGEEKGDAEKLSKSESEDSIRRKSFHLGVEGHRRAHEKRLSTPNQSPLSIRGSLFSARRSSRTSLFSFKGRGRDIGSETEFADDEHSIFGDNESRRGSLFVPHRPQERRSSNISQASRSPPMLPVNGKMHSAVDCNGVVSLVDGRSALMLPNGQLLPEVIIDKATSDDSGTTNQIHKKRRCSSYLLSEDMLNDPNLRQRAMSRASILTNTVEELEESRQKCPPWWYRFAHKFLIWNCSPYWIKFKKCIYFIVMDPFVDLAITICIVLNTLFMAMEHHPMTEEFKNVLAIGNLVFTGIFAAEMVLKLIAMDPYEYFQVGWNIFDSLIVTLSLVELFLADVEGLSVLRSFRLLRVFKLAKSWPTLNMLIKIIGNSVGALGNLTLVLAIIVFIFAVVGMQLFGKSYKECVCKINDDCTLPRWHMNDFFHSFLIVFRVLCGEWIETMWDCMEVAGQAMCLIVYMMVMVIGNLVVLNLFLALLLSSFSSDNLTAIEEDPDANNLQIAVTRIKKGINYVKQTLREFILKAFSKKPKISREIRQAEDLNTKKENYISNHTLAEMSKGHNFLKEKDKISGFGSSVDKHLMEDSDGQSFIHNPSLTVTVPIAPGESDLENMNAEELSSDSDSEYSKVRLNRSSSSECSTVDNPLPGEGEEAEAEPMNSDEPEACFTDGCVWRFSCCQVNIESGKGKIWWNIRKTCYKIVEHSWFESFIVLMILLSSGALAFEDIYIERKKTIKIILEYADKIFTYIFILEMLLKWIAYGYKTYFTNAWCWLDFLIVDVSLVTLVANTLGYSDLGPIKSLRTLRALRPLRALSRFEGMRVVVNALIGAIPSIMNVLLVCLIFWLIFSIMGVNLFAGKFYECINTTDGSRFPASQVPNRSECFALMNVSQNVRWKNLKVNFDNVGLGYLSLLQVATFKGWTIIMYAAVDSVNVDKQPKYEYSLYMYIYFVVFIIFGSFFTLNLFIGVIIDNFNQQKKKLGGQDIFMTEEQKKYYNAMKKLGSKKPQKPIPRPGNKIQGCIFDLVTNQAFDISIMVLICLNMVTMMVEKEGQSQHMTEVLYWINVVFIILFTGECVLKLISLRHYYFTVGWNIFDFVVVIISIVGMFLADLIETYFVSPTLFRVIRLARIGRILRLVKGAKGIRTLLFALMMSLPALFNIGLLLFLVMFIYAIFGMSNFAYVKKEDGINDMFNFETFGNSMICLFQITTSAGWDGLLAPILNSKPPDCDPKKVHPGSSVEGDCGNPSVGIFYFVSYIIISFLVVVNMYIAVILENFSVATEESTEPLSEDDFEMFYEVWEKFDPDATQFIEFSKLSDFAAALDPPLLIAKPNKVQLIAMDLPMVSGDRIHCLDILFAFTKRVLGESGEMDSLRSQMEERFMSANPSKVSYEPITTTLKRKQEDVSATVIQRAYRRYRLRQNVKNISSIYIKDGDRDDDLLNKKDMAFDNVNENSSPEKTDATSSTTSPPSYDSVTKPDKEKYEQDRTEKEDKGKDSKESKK
Chain of rat Nav1.7 (O08562 whole entry): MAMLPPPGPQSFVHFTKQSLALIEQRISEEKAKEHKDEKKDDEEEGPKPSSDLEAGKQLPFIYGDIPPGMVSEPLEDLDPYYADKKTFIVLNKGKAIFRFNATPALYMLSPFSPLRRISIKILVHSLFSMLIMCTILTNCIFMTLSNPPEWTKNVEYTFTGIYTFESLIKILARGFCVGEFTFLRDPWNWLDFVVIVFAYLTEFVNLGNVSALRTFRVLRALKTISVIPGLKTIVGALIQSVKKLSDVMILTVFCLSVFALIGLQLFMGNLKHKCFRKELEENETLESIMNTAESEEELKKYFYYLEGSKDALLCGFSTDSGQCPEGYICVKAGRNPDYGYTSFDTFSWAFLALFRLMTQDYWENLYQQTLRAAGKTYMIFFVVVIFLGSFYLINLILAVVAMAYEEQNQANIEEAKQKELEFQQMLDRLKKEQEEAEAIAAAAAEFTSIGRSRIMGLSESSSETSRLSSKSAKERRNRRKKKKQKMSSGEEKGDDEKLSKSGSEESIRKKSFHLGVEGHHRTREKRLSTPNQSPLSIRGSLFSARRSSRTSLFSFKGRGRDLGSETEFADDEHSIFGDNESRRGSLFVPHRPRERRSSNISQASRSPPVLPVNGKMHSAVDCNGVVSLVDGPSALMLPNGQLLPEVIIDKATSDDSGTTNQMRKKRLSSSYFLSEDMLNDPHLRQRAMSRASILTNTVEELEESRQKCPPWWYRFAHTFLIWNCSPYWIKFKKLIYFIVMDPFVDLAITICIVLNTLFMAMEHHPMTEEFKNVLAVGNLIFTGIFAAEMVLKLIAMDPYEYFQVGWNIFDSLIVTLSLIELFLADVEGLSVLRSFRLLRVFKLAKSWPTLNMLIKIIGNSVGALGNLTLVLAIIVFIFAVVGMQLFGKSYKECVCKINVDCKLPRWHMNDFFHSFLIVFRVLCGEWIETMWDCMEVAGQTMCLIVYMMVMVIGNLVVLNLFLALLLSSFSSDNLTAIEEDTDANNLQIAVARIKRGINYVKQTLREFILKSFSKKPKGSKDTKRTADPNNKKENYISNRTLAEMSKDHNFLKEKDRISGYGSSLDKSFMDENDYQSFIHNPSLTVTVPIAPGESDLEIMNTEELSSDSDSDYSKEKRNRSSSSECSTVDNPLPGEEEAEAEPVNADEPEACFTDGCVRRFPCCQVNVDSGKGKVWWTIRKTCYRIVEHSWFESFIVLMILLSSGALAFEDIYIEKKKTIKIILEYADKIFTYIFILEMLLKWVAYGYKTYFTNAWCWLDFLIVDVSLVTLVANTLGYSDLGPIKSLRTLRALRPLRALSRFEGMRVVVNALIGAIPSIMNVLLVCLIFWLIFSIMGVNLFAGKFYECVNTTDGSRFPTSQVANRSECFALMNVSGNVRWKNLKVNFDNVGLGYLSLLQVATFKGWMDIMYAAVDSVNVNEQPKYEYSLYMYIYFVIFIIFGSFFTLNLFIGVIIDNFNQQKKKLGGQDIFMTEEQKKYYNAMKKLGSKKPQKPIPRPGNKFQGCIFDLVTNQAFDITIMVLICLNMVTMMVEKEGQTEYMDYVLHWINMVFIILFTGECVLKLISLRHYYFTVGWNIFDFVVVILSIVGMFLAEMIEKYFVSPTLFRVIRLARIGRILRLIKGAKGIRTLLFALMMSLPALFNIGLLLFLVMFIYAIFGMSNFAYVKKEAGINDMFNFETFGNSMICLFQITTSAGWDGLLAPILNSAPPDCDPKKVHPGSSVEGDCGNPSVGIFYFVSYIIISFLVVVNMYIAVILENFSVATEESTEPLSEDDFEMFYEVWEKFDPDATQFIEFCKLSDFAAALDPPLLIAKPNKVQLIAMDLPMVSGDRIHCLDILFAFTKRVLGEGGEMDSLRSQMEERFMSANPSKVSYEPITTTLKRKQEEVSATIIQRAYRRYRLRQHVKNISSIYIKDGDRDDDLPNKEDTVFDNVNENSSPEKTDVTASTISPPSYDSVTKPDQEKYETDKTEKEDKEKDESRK

## NCC1(CC(=O)O)CCCCC1 [gabapentin, reference compound]
[1]
  Reversal of tactile allodynia compared to the vehicle group: 44%

## CC(=O)Nc1cccc(Nc2ncnc(N3CCC(Oc4ccc(Cl)cc4)CC3)n2)c1C [Compound A, N-(3-((4-(4-(4-chlorophenoxy)-1-piperidinyl)-1,3,5-triazin-2-yl)amino)-2-methylphenyl)acetamide]
hNav1.7; IC50 (μM) 20%-inactivated, 20%-inactivated human Nav1.7, holding voltage set to produce 20% fractional inactivation
  IC50: 0.19 µM
hNav1.7; non-inactivated human Nav1.7, holding voltage -140 mV or occasionally -120 mV, peak concentration tested 10 μM, read-out: IC50 (μM) Non-inactivated
  IC50: > 10 µM
Rat Nav1.7
  IC50: 520 nM
[2]
  fraction unbound: 0.013
[3]; brain and plasma, rat, ratio of concentrations measured following the formalin test
  Kp: 0.1
[3]; formalin test, 10 mg/kg p.o.
  concentration at 160 min: 280 nM
  Terminal plasma concentration: 3.02 µM
[3]; formalin test, 30 mg/kg p.o.
  concentration at 160 min: 880 nM
  Terminal plasma concentration: 8.07 µM
[3]; formalin test, 60 mg/kg p.o.
  Terminal plasma concentration: 13.5 µM
[3]; mean terminal plasma concentration at the lowest effective dose in the rat formalin test
  Effective [plasma]: 3.02 µM
[3]; open field test, 10 mg/kg p.o.
  Terminal plasma concentration: 2.75 µM
[3]; open field test, 30 mg/kg p.o.
  Terminal plasma concentration: 5.53 µM
[3]; open field test, 60 mg/kg p.o.
  Terminal plasma concentration: 13.0 µM
[3]; rat, brain, po, formalin test, 60 mg/kg p.o.
  concentration at 160 min: 1540 nM
[4]; 10 mg/kg p.o.
  Decrease in formalin flinching: 31.4% and 32%
[4]; 10 mg/kg p.o., listed as compound A
  Decrease in formalin flinching: 32%
[4]; 30 mg/kg p.o.
  Decrease in formalin flinching: 66.1% and 66%
[4]; [5]
  Decrease in formalin flinching: 66%
[4]; 60 mg/kg p.o.
  Decrease in formalin flinching: 85%
[4]; [6]
  Decrease in formalin flinching: 85% and 84.6%
[4]; rat formalin model, significant (p < 0.05) decrease in flinching at a dose without a reduction in open field movement that obviated the result
  Analgesic efficacy: Yes
naïve rats; 10 mg/kg p.o., negative value = increase
  Decrease in basic movement: -4.2%
naïve rats; 30 mg/kg p.o.
  Decrease in basic movement: 13.5% and 14%
naïve rats; [5]
  Decrease in basic movement: 14%
naïve rats; 60 mg/kg p.o.
  Decrease in basic movement: 46%
naïve rats; [6]
  Decrease in basic movement: 46%

## CN1CC[C@]23c4c5ccc(O)c4O[C@H]2[C@@H](O)C=C[C@H]3[C@H]1C5 [morphine, Morphine sulfate, reference compound]
[4]; morphine 2 mg/kg s.c., positive control
  Total reduction in phase 2 flinching as percent of vehicle: 68%
[4]; rat formalin test
  Reduction in formalin flinching, result in words: statistically significant decrease in flinching compared to the vehicle group
Rat CFA model of pain
  Average reversal of thermal hyperalgesia compared to baseline: 87%
